Assay results from ChEMBL document CHEMBL1177769, “Reducing ion channel activity in a series of 4-heterocyclic arylamide FMS inhibitors” (Bioorg Med Chem Lett, 2010).

How the values were obtained:
Format in all cases: ADME, organism-based
Details in all cases: in vivo
[1] = Bioavailability in rat at 0.5 mg/kg, iv and 5 mg/kg, po
Rattus norvegicus = test: Liver blood flow in rat at 0.5 mg/kg, iv and 5 mg/kg, po
[2] = Volume of distribution in rat at 0.5 mg/kg, iv and 5 mg/kg, po
[3] = Cmax in rat at 0.5 mg/kg, iv and 5 mg/kg, po

- bioavailability [1]: 15%
- LBF (Rattus norvegicus): 55 mL/min/kg
- Vd [2]: 0.564 L/kg
- Cmax [3]: 839 ng/mL
Compound: CN1CC(c2ccc(NC(=O)c3nc(C#N)c[nH]3)c(C3=CCCCC3)c2)CN(C)S1(=O)=O
